Key:
[1] = tested on: Human Skeletal Muscle Myotubes (HSMM); test: Colorimetric NAD+ quantification in human primary myoblasts differentiated to myotubes, 16 h treatment; assay type: cell-based; details: different doses
Protocol: After one day, the differentiation is induced by a medium change for 4 days. Cells were treated with synthetic trigonelline monohydrate (FIG. 4A) or with Fenugreek seed extract enriched in trigonelline containing 40.45% trigonelline (FIG. 4B) for 16 h at difference doses. NAD+ was measured using colorimetric NAD+ quantification assay (Biovision NAD+/NADH Quantitation Colorimetric Kit #k337-100).

[2] = tested on: C57BL/6JRj male mice; test: Liver NAD+ in mice after oral gavage; assay type: in vivo; details: equimolar of 300 mg/kg trigonelline, 120 minutes
Protocol: 10 weeks C57BL/6JRj male mice received trigonelline (sigma #T5509) or fenugreek seed extract enriched in trigonelline (40.45% trigonelline) by oral gavage (equimolar of 300 mg/kg trigonelline, n=8/group). After 120 minutes treatment, the liver was harvested and flash frozen in liquid nitrogen. NAD+ was measured in liver using an enzymatic method adapted from Dall, M., et al., Mol Cell Endocrinol, 2018. 473:p. 245-256.

[3] = tested on: Human Skeletal Muscle Myotubes (HSMM); details: 6 h
Protocol: Human primary myoblasts from two different donors were seeded in 6 well plates at a density of 200′000 cells per well in skeletal muscle growth medium (SKM-M, AMSbio). After one day, the differentiation was induced by a medium change for 4 days using differentiation culture medium (Gibco No. 31330-028). Cells were treated with isotopically labelled trigonelline (13C carbonyl; 32H on methyl) for 6 h.
Cell extracts were separated on a Vanquish UHPLC+focused LC system (Thermo Scientific) with a hydrophilic liquid chromatography (HILIC) iHILIC-Fusion(P) column (Hilicon) carrying the dimensions 150×2.1 mm, 5 μm and a guard column (iHILIC-fusion(P), Hilicon) in front. The separation of metabolites was achieved by applying a linear solvent gradient in normal phase at 0.25 mL/min flow rate and 35° C. of temperature. As mobile phase, solvent A was water with 10 mM ammonium acetate and 0.04% (v/v) ammonium hydroxide, pH ˜9.3, and solvent B was acetonitrile.
The eluting metabolites were analyzed with an Orbitrap Fusion Lumos mass spectrometer (Thermo Scientific) with a heated electrospray ionization (H-ESI) source in positive and negative mode at a resolution of 60,000 at m/z of 200. Instrument control and data analysis were conducted using Xcalibur (Thermo Scientific).

[4] = tested on: C. elegans; details: 1 mM, chronic exposure from Day 1 of adulthood, wild type N2
Protocol: Worm lifespan tests were performed using about 100 animals per condition and scored manually every other day. Trigonelline treatment and experimental measurements were started at Day 1 of wild type N2 worm adulthood, in a regimen of chronic exposure till experiments termination.

[5] = tested on: C. elegans; details: 1 mM
Protocol: C. elegans mobility test was performed using the Movement Tracker software (Mouchiroud, L. et al. Curr Protoc Neurosci 77, 8.37.1-8.37.21 (2016)). The experiments were repeated at least twice. Trigonelline treatment and experimental measurements were started at Day 1 of wild type N2 worm adulthood, in a regimen of chronic exposure till experiments termination.

[6] = tested on: C. elegans; details: 1 mM, day 8 and day 11 old worms
From the text: 45 to 60 worms per condition were manually scored for mobility after poking. Worms that were unable to respond to any repeated stimulation were scored as dead. […] Trigonelline treatment and experimental measurements were started at Day 1 of wild type N2 worm adulthood, in a regimen of chronic exposure til experiments termination.

[7] = tested on: RW1596 (myo-3p::GFP) worms; details: 1 mM trigonelline chloride, 11 day old worms
Protocol: RW1596 (myo-3p::GFP) worms were collected at Day 1 (young adults) and at Day 11 (aged animals) for muscle integrity assessment. Worms were immobilized with tetramisole and analyzed by confocal microscopy, to assess the muscle fibers morphology shown by GFP fluorescence imaging. Trigonelline treatment with 1 mM trigonelline chloride and experimental measurements were started at Day 1 of wild type N2 worm adulthood, in a regimen of chronic exposure till experiments termination.

[8] = tested on: C. elegans; details: 1 mM trigonelline chloride, day 8 old worms
Protocol: Absolute quantification of the mtDNA copy number in wild type N2 worms was performed by real-time PCR. Relative values for nduo-1, and act-1 were compared within each sample to generate a ratio representing the relative level of mitochondrial DNA per nuclear genome. The average of at least two technical repeats was used for each biological data point. Each experiment was performed on at least ten independent biological samples (individual worms). Trigonelline treatment with 1 mM trigonelline chloride and experimental measurements were started at Day 1 of wild type N2 worm adulthood, in a regimen of chronic exposure till experiments termination.

For `C[n+]1cccc(C(=O)[O-])c1` [chemically synthesized trigonelline, trigonelline monohydrate], the “NAD+ content compared to the control” value [1] was “significant increase in NAD+ content” and the “NAD+ content in the liver compared to the control” value [2] was “significant increase in NAD+ content in the liver”.

In the case of `C[n+]1cccc(C(=O)[O-])c1` [trigonelline (13C-carbonyl, C2H3), reference compound], the “[13C]-isotopic enrichment of NAD+ (% of 13C-enrichment)” value ([3]; 500 μM labelled trigonelline, compared to NAD+ in baseline conditions, corrected for natural abundance) is reported as 45%.

For `C[n+]1cccc(C(=O)O)c1` [trigonelline chloride], the “Increase of lifespan (survival curve)” value [4] was 21%, the “Distance travelled during spontaneous mobility assay compared to control” value ([5]; advanced aging phase) was “significantly increased” and the “Mean speed during spontaneous mobility assay compared to the control” value ([5]; from day 1 adulthood) was “increased the mean speed”. For the same compound, the “Stimulated mobility score (percentage of worms responsive to a physical stimulus)” value [6] was “more responsive to a physical stimulus”.

`C[n+]1cccc(C(=O)[O-])c1` [trigonelline, 1-methylpyridin-1-ium-3-carboxylate] was tested, and the “NAD+ levels relative to control” value ([3]; 500 μM, human myotubes from 2 donors, LC-MS) was “enhancement of NAD+ levels”, the “Myofibrillar structure (GFP-tagged myosin morphology) compared to age matched control” value [7] was “improved more organized myofibrillar structure” and the “Mitochondrial (nduo-1) relative to nuclear (act-1) DNA ratio compared to control” value [8] was “higher than in the control group”.
